The values that follow come from patent publication US9447103B2, “Inauhzin analogues that induce P53, inhibit cell growth, and have antitumor activity” (Indiana University Research and Technology Corp., priority 2012, dated 2016).

Where two headings read alike, the source gives them in different places.

In experiment [1] the test system is H460. As to the kind of experiment: Cell viability assay (3-day WST-8), H460. The class given is cell-based, human. The note with it: Homo sapiens, NCI-H460, H460, p53 wild type. (Formazan colour is commonly taken as a measure of viable cells.)
Description: (§1) Those cell lines were cultured in Dulbecco's modified Eagle's medium supplemented with 10% fetal bovine serum, 100 U per mL penicillin, and 100 U per mL streptomycin. Compounds were dissolved in DMSO and diluted directly into the medium to the indicated concentrations; 0.1% DMSO was used as a control.
(§2) Cell Viability Assay. To assess cell growth, the cell counting kit (Dojindo Molecular Technologies Inc., Gaithersburg, Md.) was used according to manufacturer's instructions. Cell suspensions were seeded at 3,000 cells per well in 96-well culture plates and incubated overnight at 37° C. Compounds were added into the plates and incubated at 37° C. for 72 hrs. Cell growth inhibition was determined by adding WST-8 at a final concentration of 10% to each well, and the absorbance of the samples was measured at 450 nm using a Microplate Reader (Molecular Device, SpecrtraMax M5^e).
For experiment [2], the system named is HCT116^+/+. As to the kind of experiment: Cell viability assay (3-day WST-8), HCT116^+/+. The class given is cell-based, human. The note with it: Homo sapiens, HCT-116.
Description: as §1, §2
In experiment [3] the test system is xenograft tumors derived from p53-harboring lung cancer H460 and colon cancer HCT116^+/+ cells. The note with it: background, earlier work; cited from earlier work.
Experiment [4] concerns H1299. As to the kind of experiment: Cell viability assay (3-day WST-8), H1299 (p53 null). Conditions: Homo sapiens.
Description: as §1, §2
Experiment [5] concerns HCT116^−/−. As to the kind of experiment: Cell viability assay (3-day WST-8), HCT116^−/− (p53 null). The note with it: Homo sapiens.
Description: (§3) The EC50 values for their ability to inhibit cell growth were calculated through serial dilution of their concentrations with the highest concentration at 50 μM.
(§4) Human lung carcinoma H460, non-small-cell lung cancer H1299, human colon cancer HCT116 (HCT116^+/+), and human embryonic fibroblast WI-38 were bought from the American Type Culture Collection (ATCC). […] Those cell lines were cultured in Dulbecco's modified Eagle's medium supplemented with 10% fetal bovine serum, 100 U per mL penicillin, and 100 U per mL streptomycin. Compounds were dissolved in DMSO and diluted directly into the medium to the indicated concentrations; 0.1% DMSO was used as a control.
(§5) Cell Viability Assay. To assess cell growth, the cell counting kit (Dojindo Molecular Technologies Inc., Gaithersburg, Md.) was used according to manufacturer's instructions. Cell suspensions were seeded at 3,000 cells per well in 96-well culture plates and incubated overnight at 37° C. Compounds were added into the plates and incubated at 37° C. for 72 hrs. Cell growth inhibition was determined by adding WST-8 at a final concentration of 10% to each well, and the absorbance of the samples was measured at 450 nm using a Microplate Reader (Molecular Device, SpecrtraMax M5^e). EC50 values were determined by the Hill equation using Igor 4.01 (Lake Oswego, Oreg., USA).
Experiment [6] relates to H1299 cells and HCT116^−/− cells. As to the kind of experiment: Cell growth inhibition (WST), statements covering p53-null lines. Conditions: p53-null versus p53-containing.
Description: as §3, §4, §5

On to `CCC(Sc1nnc2c(n1)[nH]c1ccccc12)C(=O)N1c2ccccc2Sc2ccccc21` (stereo not drawn) [INZ, 2-((5H-[1,2,4]triazino[5,6-b]indole-3yl)thio)-1-(10H-phenothiazin-10-yl)butan-1-one, reference compound], for which the EC50 (in general, the concentration needed to bring the measured effect to its halfway point) in experiment [1] (72 hrs, average of triplicates, read-out: EC50 cell growth inhibition) was found to be 7.7 ± 1.1 µM; in experiment [2] (HCT116+/+ cells, values of b177 (differ from Table 1), read-out: EC50 growth inhibition) it was 3.52 µM; in experiment [2] (HCT116^+/+, p53 wild type, 72 hrs, read-out: EC50 cell growth inhibition), 2.7 ± 0.3 µM; in experiment [4] (NCI-H1299, 72 h, read-out: EC50 cell growth inhibition), 11.6 ± 3.4 µM; in experiment [5] (HCT-116, 72 h, read-out: EC50 cell growth inhibition) it was 13.3 ± 2.4 µM. Moreover, the EC90 (as a rule, the concentration at which the effect reaches the 90% level) is about 39.9 µM in experiment [1] (calculated from EC50 and Hill slope, read-out: EC90 cell growth inhibition); 30.5 µM in experiment [2] (HCT116^+/+, p53 wild type, calculated from EC50 and Hill slope, read-out: EC90 cell growth inhibition); 217 µM in experiment [4] (NCI-H1299, read-out: EC90 cell growth inhibition); 213 µM in experiment [5] (HCT-116, read-out: EC90 cell growth inhibition). Moreover, the “growth of xenograft tumors” value in experiment [3] is on record as “repressed the growth of xenograft tumors”. In experiment [6], the “EC50 fold greater in p53-null cells than in p53-containing cell lines” value is recorded as 1.5 fold. Also, the “EC90 fold greater in p53-null cells than in p53-containing cell lines” value in experiment [6] is 5-7 fold.
